For test [1], the target named is T1, Epidermal growth factor receptor (Homo sapiens, UniProt P00533). In words: Inhibition of wild type EGFR (unknown origin).
In test [2] the target is Epidermal growth factor receptor (Homo sapiens, UniProt P00533, C797S/EX19DEL/T790M). Nature of the test: Inhibition of EGFR Del19/T790M/C797S triple mutant (unknown origin).
In test [3] the target is T2, Epidermal growth factor receptor (Homo sapiens, UniProt P00533, C797S/L858R/T790M). In words: Inhibition of EGFR L858R/T790M/C797S triple mutant (unknown origin).
Test [4] can be described thus: Antiproliferative activity against mouse Ba/F3 EGFR-T790M/C797S/L858R cells assessed as reduction in cell growth incubated for 72 hrs by CCK-8 assay. The test is classed as functional, cell-based.
Test [5] in a line: Antiproliferative activity against mouse Ba/F3 EGFR-Del19/T790M/C797S cells assessed as reduction in cell growth incubated for 72 hrs by CCK-8 assay. The test is classed as functional, cell-based.
Test [6] in a line: Antiproliferative activity against mouse Ba/F3 EGFR-Del19/T790M/C797S cells assessed as reduction in cell viability at 10 uM incubated for 72 hrs by MTT assay relative to control. Type of test: functional.
In test [7] the test system is NIH3T3. Nature of the test: Antiproliferative activity against mouse NIH3T3 cells harboring EGFR del19/T790M/C797S assessed as reduction in cell growth measured for 4 to 7 days by CellTiter-Glo Luminescent assay. Type of test: functional, cell-based.
Test [8] concerns NIH3T3. Nature of the test: Antiproliferative activity against mouse NIH3T3 cells harboring EGFR L858R/T790M/C797S assessed as reduction in cell growth measured for 4 to 7 days by CellTiter-Glo Luminescent assay. The test is classed as functional, cell-based.
The target of test [9] is Epidermal growth factor receptor (Homo sapiens, UniProt P00533, L858R/T790M). In words: Inhibition of EGFR L858R/T790M double mutant (unknown origin).
Test [10] relates to Epidermal growth factor receptor (Homo sapiens), P00533 [L858R,T790M,C797S]. The following applies: dose 0.05 nM.
The nature of test [11]: Antiproliferative activity against mouse Ba/F3 EGFR-Del19/T790M/C797S cells. The test is classed as functional, cell-based.
For test [12], the system named is Epidermal growth factor receptor (Homo sapiens), P00533 [L858R,T790M,C797S]. The following applies: dose 1.0 nM.
Another test in a line: cells. The following applies: Mus musculus, Ba/F3 EGFR-T790M/C797S/L858R.
A short description of test [13]: Antiproliferative activity against mouse Ba/F3 EGFR cells. The test is classed as functional, cell-based.
Test [14] concerns Epidermal growth factor receptor (Homo sapiens), P00533 [L858R,T790M,C797S]. The following applies: dose 200.0 nM, tested as the 2H-labelled form.
Test [15] is described as follows: Antiproliferative activity against human NCI-H1975 EGFR T790M/C797S/L858R cells. Type of test: functional, cell-based.
The test system of another test is A549. In words: Antiproliferative activity against human A549 cells. Type of test: functional, cell-based.
Test [16] has as its target T2, Epidermal growth factor receptor. Nature of the test: Inhibition of EGFR L858R/T790M/C797S triple mutant (unknown origin) at 20 nM relative to control.
The target in test [17] is T1, Epidermal growth factor receptor. In words: Inhibition of wild type EGFR (unknown origin) by HTRF assay.

Chain of Epidermal growth factor receptor (Homo sapiens), P00533 [L858R,T790M,C797S] (P00533 whole entry T790M/C797S/L858R): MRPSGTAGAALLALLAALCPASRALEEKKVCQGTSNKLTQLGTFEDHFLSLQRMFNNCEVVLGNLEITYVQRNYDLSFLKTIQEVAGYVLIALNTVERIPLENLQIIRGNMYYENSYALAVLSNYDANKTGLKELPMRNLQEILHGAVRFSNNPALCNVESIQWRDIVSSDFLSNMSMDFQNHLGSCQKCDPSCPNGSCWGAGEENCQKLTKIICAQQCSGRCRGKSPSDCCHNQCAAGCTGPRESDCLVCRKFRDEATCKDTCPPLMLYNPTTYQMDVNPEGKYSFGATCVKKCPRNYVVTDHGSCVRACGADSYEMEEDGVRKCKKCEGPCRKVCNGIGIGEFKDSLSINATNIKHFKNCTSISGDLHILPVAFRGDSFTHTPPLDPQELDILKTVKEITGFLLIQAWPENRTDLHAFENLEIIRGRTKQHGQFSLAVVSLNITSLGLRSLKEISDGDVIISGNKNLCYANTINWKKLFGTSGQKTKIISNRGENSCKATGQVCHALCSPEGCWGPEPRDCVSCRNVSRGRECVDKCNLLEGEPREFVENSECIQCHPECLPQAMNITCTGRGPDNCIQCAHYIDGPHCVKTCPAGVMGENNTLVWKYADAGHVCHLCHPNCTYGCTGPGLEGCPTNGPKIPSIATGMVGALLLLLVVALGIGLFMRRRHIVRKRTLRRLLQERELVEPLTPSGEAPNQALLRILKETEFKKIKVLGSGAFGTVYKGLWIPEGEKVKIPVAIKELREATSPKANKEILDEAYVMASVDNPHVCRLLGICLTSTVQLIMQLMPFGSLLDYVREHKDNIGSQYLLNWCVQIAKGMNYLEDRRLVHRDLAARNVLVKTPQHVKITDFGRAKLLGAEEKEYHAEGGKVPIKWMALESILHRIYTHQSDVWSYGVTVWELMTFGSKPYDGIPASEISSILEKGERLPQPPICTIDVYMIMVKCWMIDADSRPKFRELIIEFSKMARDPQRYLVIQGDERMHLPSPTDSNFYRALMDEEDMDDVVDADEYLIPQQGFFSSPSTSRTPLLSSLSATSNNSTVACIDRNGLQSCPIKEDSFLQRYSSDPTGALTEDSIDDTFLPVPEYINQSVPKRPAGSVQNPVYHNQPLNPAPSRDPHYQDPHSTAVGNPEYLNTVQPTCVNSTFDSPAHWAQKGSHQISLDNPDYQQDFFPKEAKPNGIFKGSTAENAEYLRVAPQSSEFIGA
T1 sequence (P00533 whole entry): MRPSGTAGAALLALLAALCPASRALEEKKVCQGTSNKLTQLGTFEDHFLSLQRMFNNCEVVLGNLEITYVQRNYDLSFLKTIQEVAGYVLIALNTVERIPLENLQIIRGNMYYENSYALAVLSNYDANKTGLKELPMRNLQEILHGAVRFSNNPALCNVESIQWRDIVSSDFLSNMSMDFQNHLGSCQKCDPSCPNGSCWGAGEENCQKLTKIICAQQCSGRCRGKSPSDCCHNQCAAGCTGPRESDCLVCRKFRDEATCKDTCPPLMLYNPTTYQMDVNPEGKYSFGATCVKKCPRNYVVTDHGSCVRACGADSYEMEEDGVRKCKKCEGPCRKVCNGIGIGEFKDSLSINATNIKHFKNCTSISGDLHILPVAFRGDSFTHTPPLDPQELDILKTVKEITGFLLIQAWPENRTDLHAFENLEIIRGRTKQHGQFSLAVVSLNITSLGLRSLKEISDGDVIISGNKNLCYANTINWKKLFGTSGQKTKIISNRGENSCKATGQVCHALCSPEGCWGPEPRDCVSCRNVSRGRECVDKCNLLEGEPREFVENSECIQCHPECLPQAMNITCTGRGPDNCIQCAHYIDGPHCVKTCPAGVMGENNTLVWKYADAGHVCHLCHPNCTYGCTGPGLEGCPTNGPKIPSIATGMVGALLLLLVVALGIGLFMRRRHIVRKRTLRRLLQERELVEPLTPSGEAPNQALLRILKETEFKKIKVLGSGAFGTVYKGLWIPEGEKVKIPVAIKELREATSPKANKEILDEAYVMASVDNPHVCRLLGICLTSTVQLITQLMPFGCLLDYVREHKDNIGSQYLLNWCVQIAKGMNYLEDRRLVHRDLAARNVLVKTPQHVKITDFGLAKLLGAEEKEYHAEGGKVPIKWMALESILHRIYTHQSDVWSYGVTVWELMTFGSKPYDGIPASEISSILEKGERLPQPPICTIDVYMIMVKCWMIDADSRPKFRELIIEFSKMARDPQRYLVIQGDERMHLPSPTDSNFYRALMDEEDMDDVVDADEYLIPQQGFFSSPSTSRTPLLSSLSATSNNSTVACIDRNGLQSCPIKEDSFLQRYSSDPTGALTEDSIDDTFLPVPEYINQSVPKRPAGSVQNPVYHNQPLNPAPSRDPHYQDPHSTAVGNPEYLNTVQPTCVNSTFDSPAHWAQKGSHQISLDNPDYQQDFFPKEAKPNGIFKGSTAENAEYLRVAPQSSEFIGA
T2 sequence (P00533 25-1210 T790M/C797S/L858R limits assumed): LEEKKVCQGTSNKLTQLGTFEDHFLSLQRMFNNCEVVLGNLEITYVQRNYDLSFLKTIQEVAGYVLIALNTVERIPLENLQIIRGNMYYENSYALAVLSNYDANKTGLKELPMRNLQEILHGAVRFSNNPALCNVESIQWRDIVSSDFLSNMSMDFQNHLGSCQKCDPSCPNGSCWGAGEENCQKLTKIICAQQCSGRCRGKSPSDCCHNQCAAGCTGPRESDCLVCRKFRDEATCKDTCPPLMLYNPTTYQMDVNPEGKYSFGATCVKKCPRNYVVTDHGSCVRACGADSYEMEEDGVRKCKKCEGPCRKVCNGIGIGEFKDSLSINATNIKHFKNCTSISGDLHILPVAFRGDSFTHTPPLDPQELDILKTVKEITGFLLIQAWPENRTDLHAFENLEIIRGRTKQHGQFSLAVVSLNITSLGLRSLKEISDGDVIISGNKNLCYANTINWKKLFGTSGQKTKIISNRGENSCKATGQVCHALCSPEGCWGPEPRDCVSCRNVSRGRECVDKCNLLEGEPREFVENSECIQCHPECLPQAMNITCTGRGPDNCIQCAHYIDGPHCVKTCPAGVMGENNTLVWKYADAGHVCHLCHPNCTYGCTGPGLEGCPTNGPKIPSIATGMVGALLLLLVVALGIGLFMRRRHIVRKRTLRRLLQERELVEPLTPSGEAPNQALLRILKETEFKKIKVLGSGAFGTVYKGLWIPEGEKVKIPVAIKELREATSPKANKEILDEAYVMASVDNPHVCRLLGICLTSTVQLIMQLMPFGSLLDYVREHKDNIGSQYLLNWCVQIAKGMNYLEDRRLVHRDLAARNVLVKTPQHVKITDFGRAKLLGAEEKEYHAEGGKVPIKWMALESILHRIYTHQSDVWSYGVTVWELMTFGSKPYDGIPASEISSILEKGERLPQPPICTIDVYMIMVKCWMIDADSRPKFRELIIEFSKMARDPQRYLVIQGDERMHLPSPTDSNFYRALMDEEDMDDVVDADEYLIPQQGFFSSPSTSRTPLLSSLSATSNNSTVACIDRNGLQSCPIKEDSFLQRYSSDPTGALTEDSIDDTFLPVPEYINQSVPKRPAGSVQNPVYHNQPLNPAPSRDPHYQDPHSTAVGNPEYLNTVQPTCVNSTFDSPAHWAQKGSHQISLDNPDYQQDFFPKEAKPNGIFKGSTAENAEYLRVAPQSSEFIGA
Chain of Epidermal growth factor receptor (Homo sapiens, UniProt P00533, L858R/T790M) (P00533 25-1210 T790M/L858R limits assumed): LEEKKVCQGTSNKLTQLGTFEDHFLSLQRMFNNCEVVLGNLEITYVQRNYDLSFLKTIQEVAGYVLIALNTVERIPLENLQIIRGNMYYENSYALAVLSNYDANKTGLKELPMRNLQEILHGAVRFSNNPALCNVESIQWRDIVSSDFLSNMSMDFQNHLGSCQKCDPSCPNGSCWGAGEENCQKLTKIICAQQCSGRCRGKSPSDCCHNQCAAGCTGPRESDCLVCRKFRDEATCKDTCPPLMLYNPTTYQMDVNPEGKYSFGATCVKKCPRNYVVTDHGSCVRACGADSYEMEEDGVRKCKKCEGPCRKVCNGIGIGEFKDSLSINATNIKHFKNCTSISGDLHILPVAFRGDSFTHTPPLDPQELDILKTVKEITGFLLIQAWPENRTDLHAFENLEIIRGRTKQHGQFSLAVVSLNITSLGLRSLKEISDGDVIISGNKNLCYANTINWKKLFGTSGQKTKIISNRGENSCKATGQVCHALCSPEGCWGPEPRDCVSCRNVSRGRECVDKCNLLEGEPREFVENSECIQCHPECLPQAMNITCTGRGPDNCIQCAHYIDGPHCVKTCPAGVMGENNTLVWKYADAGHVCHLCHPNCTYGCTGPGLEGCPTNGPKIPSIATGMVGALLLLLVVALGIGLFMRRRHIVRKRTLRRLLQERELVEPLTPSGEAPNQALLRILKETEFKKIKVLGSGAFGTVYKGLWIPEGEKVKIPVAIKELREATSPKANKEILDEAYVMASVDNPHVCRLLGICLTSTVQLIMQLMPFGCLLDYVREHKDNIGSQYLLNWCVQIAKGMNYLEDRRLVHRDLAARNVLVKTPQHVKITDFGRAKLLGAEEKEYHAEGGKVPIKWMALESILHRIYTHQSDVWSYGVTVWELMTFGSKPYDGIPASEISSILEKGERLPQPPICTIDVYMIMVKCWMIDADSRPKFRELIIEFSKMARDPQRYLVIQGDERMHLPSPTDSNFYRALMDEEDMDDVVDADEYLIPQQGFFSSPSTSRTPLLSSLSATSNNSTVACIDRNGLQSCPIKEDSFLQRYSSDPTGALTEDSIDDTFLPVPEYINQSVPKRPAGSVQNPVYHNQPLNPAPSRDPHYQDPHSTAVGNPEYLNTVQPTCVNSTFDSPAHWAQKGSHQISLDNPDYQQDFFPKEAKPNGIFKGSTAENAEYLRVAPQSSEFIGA

With `COc1cc(N2CCC(N3CCN(C)CC3)CC2)ccc1Nc1ncc(Cl)c(Nc2ccccc2NS(C)(=O)=O)n1`, the half-inhibitory concentration (IC50) was 184 nM in test [1], 5 nM in [2] and 8 nM in test [3].

In the case of `N#Cc1ccc(O)c(-c2nc(NCc3cccnc3)c3ccccc3n2)c1`, the concentration for half-maximal inhibition (IC50) in test [1] was greater than 50 nM.

Regarding `CN1CCN(c2ccc(Nc3ncc(Cl)c(Nc4ccccc4P(C)(C)=O)n3)cc2Br)CC1`, the IC50 in [4] amounted to 90 nM; in [5], 120 nM.

For the compound `Oc1ccccc1-c1nc(NCC2CCOC2)c2ccccc2n1` (stereo not drawn), the Activity in test [6] worked out at 91%.

Consider `CC(C)n1c2cc(Nc3ccnc(-c4cnn(S(=O)(=O)C5CC5)c4)n3)ncc2c2c(OCC(F)(F)F)cc(N3CCN(C)CC3)cc21`, for which the IC50 is 0.92 nM in [1], 20 nM in the test on NIH3T3 [7] and 45 nM in the test with NIH3T3 [8].

With `CN1CCC(c2ccc(-c3ccc4c(c3)C(=O)N(C(C(=O)Nc3nccs3)c3cc(F)ccc3O)C4)cc2)CC1` (stereo not drawn), the IC50 turned out to be 0.063 nM in test [9] and 0.083 nM in test [3].

As for `COc1cc(N2CCC(N3CCN(C)CC3)CC2)ccc1Nc1ncc(Cl)c(Nc2ccccc2P(C)(C)=O)n1` [BRIGATINIB], the inhibition was determined as 4.82% in test [10] and 57% in test [12]. Also, the half-maximal inhibitory concentration (IC50) worked out at 139 nM in test [11] and 15.6 nM in “cells”.

Turning to `C=CC(=O)Nc1cc(Nc2nccc(-c3cn(C)c4ccccc34)n2)c(OC)cc1N(C)CCN(C)C` [OSIMERTINIB], the IC50 is 4140 nM in test [4]; 1200 nM in the test with NIH3T3 [7]; 2700 nM with NIH3T3 [8]; 3380 nM in [5]; greater than 1000 nM in [11]; greater than 1000 nM in the test “cells”. For the same compound, the 50% inhibitory concentration (IC50) in [13] was found to be 171 nM.

With `Cc1cc(Nc2ncc(Br)c(Nc3ccccc3NS(=O)(=O)C3CC3)n2)ccc1N1CCN(C)CC1`, the inhibition was 59% in test [10] (tested as the 2H-labelled form), 99% in test [14] and 86.9% in test [12] (tested as the 2H-labelled form).

Consider `N#Cc1ccc(O)c(-c2nc(NCc3ncccn3)c3ccccc3n2)c1`, for which half-maximal inhibition in test [15] (IC50) was put at 1200 nM.

For `[2H]C([2H])([2H])c1cc(Nc2ncc(Br)c(Nc3ccccc3NS(=O)(=O)C3CC3)n2)ccc1N1CCN(C([2H])([2H])[2H])CC1`, the half-inhibitory concentration (IC50) with A549 worked out at 957 nM; in [11] it was 12 nM; in “cells”, 16 nM. For the same compound, the inhibition in test [16] stood at 97.2%.

Regarding `CCC(=O)Nc1cccc(-c2c(-c3ccc(N4CCN(C)CC4)cc3)[nH]c3ncnc(OCC(C)C)c23)c1`, it took 0.4 nM to reach half-maximal inhibition in test [17] (IC50).

Turning to `CCc1cc(Nc2ncc(Cl)c(Nc3ccc(C)c(C)c3P(C)(C)=O)n2)c(OC)cc1N1CC2(CCN(C)CC2)C1`, the IC50 in test [11] was 128 nM; in “cells” it was 43.3 nM; in [13] it was greater than 1000 nM.

Turning to `CCC(=O)N[C@H]1CC[C@@H](N2C(=O)N(c3ccccc3Cl)Cc3cnc(Nc4ccc(N5CCN(C)CC5)c(C)c4)nc32)CC1`, in [4], the IC50 came to 320 nM.

On to `C=CC(=O)C1CCC[C@@H](n2nc(-c3ccc4ccccc4c3)c3c(N)ncnc32)C1` (stereo partly drawn), for which the half-maximal inhibitory concentration (IC50) is 16 nM in [1] and 88 nM in test [3].
